Where only a bound is given, the exact number is not on record here.

The target of one series is T1, Nuclear receptor subfamily 1 group I member 2 (Homo sapiens, UniProt O75469).
T1 sequence (O75469 whole entry): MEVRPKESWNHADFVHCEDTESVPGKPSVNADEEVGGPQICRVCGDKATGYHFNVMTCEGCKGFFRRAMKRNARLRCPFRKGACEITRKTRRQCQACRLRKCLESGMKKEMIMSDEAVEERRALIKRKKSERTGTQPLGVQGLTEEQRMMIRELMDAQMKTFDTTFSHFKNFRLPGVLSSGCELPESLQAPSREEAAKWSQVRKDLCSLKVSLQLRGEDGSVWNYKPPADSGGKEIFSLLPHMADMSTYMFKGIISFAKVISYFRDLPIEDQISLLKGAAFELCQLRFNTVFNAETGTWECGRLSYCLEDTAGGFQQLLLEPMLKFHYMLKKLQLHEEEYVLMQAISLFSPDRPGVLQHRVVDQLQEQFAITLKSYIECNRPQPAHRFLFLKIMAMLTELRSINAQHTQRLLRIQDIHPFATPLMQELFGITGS
The series is described as follows: Transactivation of PXR (unknown origin) expressed in human HepG2 cells. Type of series: cell-based.
Details: not given
`O=C([C@H]1CC[C@H](O)CC1)N1CC[C@](c2ccc(C(F)(C(F)(F)F)C(F)(F)F)cc2)(S(=O)(=O)c2ccc(F)cc2)C1` came in with an EC50 of more than 50 µM.
Same read-out and setting: for `CCC1(C(=O)N2CC[C@](c3ccc(C(F)(C(F)(F)F)C(F)(F)F)cc3)(S(=O)(=O)c3ccc(F)cc3)C2)CCS(=O)(=O)CC1` the value was 5.2 µM; for `O=C(O)[C@@H]1C[C@@H]2[C@H](C1)[C@H]2C(=O)N1CC[C@](c2ccc(C(F)(C(F)(F)F)C(F)(F)F)cc2)(S(=O)(=O)c2ccc(F)cc2)C1`, more than 33 µM; for `O=C(N1CC[C@](c2ccc(C(F)(C(F)(F)F)C(F)(F)F)cc2)(S(=O)(=O)c2ccc(F)cc2)C1)C1(CO)CCS(=O)(=O)CC1`, more than 50 µM.

Another series addresses T2, Oxysterols receptor LXR-beta (Homo sapiens, UniProt P55055).
T2 sequence (P55055 whole entry): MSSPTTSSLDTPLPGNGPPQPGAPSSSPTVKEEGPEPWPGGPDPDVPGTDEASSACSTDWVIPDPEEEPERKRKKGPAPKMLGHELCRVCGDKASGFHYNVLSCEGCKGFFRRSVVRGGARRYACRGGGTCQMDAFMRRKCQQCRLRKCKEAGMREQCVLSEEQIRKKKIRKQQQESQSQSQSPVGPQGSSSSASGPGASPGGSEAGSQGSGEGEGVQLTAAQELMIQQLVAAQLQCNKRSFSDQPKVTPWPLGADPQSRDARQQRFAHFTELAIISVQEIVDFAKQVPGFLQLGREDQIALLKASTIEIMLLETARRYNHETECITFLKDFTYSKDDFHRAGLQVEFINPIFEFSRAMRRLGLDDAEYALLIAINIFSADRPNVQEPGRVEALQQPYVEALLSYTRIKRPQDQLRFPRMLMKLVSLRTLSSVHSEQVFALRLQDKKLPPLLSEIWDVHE
The series is described as follows: Transactivation of human GAL4-fused LXRbeta expressed in African green monkey CV1 cells.
Details: not given
Type of series: cell-based.
Turning to `O=C([C@H]1CC[C@H](O)CC1)N1CC[C@](c2ccc(C(F)(C(F)(F)F)C(F)(F)F)cc2)(S(=O)(=O)c2ccc(F)cc2)C1`, the EC50 was more than 7.5 µM.
On the same count and under the same terms, the result for `CCC1(C(=O)N2CC[C@](c3ccc(C(F)(C(F)(F)F)C(F)(F)F)cc3)(S(=O)(=O)c3ccc(F)cc3)C2)CCS(=O)(=O)CC1` reads more than 7.5 µM; that for `O=C(O)[C@@H]1C[C@@H]2[C@H](C1)[C@H]2C(=O)N1CC[C@](c2ccc(C(F)(C(F)(F)F)C(F)(F)F)cc2)(S(=O)(=O)c2ccc(F)cc2)C1`, more than 7.5 µM; that for `O=C(N1CC[C@](c2ccc(C(F)(C(F)(F)F)C(F)(F)F)cc2)(S(=O)(=O)c2ccc(F)cc2)C1)C1(CO)CCS(=O)(=O)CC1`, more than 7.5 µM.

A further series has as its target T3, PXR (Homo sapiens, UniProt O75469).
T3 sequence (O75469 whole entry): T1 sequence (O75469 whole entry)
The series is described as follows: Transactivation of PXR (unknown origin) expressed in human HepG2 cells assessed as maximum receptor activation response relative to control. Type of series: cell-based. The note with it: human HepG2 cells that express PXR, read-out: %max.
As to `O=C([C@H]1CC[C@H](O)CC1)N1CC[C@](c2ccc(C(F)(C(F)(F)F)C(F)(F)F)cc2)(S(=O)(=O)c2ccc(F)cc2)C1`, the Emax turned out to be 13%.
As to `CCC1(C(=O)N2CC[C@](c3ccc(C(F)(C(F)(F)F)C(F)(F)F)cc3)(S(=O)(=O)c3ccc(F)cc3)C2)CCS(=O)(=O)CC1`, the Emax was determined as 32%.
Same read-out and setting: for `O=C(O)[C@@H]1C[C@@H]2[C@H](C1)[C@H]2C(=O)N1CC[C@](c2ccc(C(F)(C(F)(F)F)C(F)(F)F)cc2)(S(=O)(=O)c2ccc(F)cc2)C1` the value was 43%.
As for `O=C(N1CC[C@](c2ccc(C(F)(C(F)(F)F)C(F)(F)F)cc2)(S(=O)(=O)c2ccc(F)cc2)C1)C1(CO)CCS(=O)(=O)CC1`, the Emax is 8%.

Tested on in a further series: not listed separately
The series is described as follows: Stability in mouse liver microsomes assessed as parent compound remaining after 10 mins. Format: ADME, Microsome. The note with it: liver microsomes, read-out: Stability. In general terms: Liver microsomes are a subcellular fraction often used to study metabolism.
In the case of `O=C([C@H]1CC[C@H](O)CC1)N1CC[C@](c2ccc(C(F)(C(F)(F)F)C(F)(F)F)cc2)(S(=O)(=O)c2ccc(F)cc2)C1`, the remaining at 10 min is 58%.
On the same count and under the same terms, for `CCC1(C(=O)N2CC[C@](c3ccc(C(F)(C(F)(F)F)C(F)(F)F)cc3)(S(=O)(=O)c3ccc(F)cc3)C2)CCS(=O)(=O)CC1` the value was 0%.
Same read-out and setting: the result for `O=C(O)[C@@H]1C[C@@H]2[C@H](C1)[C@H]2C(=O)N1CC[C@](c2ccc(C(F)(C(F)(F)F)C(F)(F)F)cc2)(S(=O)(=O)c2ccc(F)cc2)C1` reads 100%.
Still for that read-out and setting: the result for `O=C(N1CC[C@](c2ccc(C(F)(C(F)(F)F)C(F)(F)F)cc2)(S(=O)(=O)c2ccc(F)cc2)C1)C1(CO)CCS(=O)(=O)CC1` reads 31%.

A further series concerns the target T4, Nuclear receptor ROR-alpha (Homo sapiens, UniProt P35398).
T4 sequence (P35398 whole entry): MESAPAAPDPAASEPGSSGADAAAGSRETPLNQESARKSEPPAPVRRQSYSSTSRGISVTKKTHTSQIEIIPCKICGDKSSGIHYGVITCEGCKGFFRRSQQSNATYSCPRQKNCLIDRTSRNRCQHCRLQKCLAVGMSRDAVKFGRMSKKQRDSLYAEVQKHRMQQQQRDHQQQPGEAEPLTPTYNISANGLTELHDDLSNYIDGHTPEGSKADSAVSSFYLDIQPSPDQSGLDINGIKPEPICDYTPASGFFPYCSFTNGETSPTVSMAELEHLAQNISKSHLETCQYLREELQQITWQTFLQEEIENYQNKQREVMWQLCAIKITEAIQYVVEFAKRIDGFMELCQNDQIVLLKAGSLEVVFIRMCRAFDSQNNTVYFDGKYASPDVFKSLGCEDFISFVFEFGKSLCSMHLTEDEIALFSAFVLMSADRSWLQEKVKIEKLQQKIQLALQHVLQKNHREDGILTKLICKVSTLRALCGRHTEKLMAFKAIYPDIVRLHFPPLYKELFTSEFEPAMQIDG
The series is described as follows: Inverse agonist activity at human Gal4-fused RORalpha LBD (272 to 556 residues) expressed in human Jurkat cells measured after 18 hrs by steady-glo luciferase reporter gene assay. Format: cell-based.
Details: not given
Consider `O=C([C@H]1CC[C@H](O)CC1)N1CC[C@](c2ccc(C(F)(C(F)(F)F)C(F)(F)F)cc2)(S(=O)(=O)c2ccc(F)cc2)C1`, for which the EC50 was more than 40 µM.
On the same count and under the same terms, the result for `CCC1(C(=O)N2CC[C@](c3ccc(C(F)(C(F)(F)F)C(F)(F)F)cc3)(S(=O)(=O)c3ccc(F)cc3)C2)CCS(=O)(=O)CC1` reads more than 40 µM.
Same read-out and setting: for `O=C(O)[C@@H]1C[C@@H]2[C@H](C1)[C@H]2C(=O)N1CC[C@](c2ccc(C(F)(C(F)(F)F)C(F)(F)F)cc2)(S(=O)(=O)c2ccc(F)cc2)C1` the value was more than 40 µM.
Same read-out and setting: for `O=C(N1CC[C@](c2ccc(C(F)(C(F)(F)F)C(F)(F)F)cc2)(S(=O)(=O)c2ccc(F)cc2)C1)C1(CO)CCS(=O)(=O)CC1` the value was more than 40 µM.

Another series has as its target T5, Nuclear receptor ROR-beta (Homo sapiens, UniProt Q92753).
T5 sequence (Q92753 whole entry): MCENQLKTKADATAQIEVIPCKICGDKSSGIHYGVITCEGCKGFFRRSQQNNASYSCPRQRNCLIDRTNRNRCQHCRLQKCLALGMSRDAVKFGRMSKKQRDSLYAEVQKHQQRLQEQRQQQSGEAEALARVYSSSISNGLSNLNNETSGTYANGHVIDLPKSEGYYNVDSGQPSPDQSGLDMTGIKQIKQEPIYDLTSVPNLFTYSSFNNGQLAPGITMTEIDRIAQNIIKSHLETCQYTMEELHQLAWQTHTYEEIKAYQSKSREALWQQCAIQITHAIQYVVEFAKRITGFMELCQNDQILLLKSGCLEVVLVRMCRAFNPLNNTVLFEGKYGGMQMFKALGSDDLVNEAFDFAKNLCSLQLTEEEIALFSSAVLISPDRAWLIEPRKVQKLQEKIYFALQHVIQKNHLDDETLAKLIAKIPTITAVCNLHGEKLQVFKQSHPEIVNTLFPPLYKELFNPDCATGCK
Put plainly: Inverse agonist activity at human Gal4-fused RORbeta LBD (200 to 559 residues) expressed in human Jurkat cells measured after 18 hrs by steady-glo luciferase reporter gene assay. Type of series: cell-based.
Details: not given
(Reporter assays use an easily measured gene product as a stand-in for the process of interest.)
For the compound `O=C([C@H]1CC[C@H](O)CC1)N1CC[C@](c2ccc(C(F)(C(F)(F)F)C(F)(F)F)cc2)(S(=O)(=O)c2ccc(F)cc2)C1`, the EC50 was more than 40 µM.
Same read-out and setting: for `CCC1(C(=O)N2CC[C@](c3ccc(C(F)(C(F)(F)F)C(F)(F)F)cc3)(S(=O)(=O)c3ccc(F)cc3)C2)CCS(=O)(=O)CC1` the value was more than 40 µM; for `O=C(O)[C@@H]1C[C@@H]2[C@H](C1)[C@H]2C(=O)N1CC[C@](c2ccc(C(F)(C(F)(F)F)C(F)(F)F)cc2)(S(=O)(=O)c2ccc(F)cc2)C1`, more than 40 µM; for `O=C(N1CC[C@](c2ccc(C(F)(C(F)(F)F)C(F)(F)F)cc2)(S(=O)(=O)c2ccc(F)cc2)C1)C1(CO)CCS(=O)(=O)CC1`, more than 40 µM.

Tested on in the next series: not listed separately
Put plainly: Stability in human liver microsomes assessed as parent compound remaining after 10 mins. Format: ADME, Microsome. The following applies: liver microsomes, read-out: Stability.
For the compound `O=C([C@H]1CC[C@H](O)CC1)N1CC[C@](c2ccc(C(F)(C(F)(F)F)C(F)(F)F)cc2)(S(=O)(=O)c2ccc(F)cc2)C1`, the remaining at 10 min was determined as 86%.
Same read-out and setting: for `CCC1(C(=O)N2CC[C@](c3ccc(C(F)(C(F)(F)F)C(F)(F)F)cc3)(S(=O)(=O)c3ccc(F)cc3)C2)CCS(=O)(=O)CC1` the value was 3%; for `O=C(O)[C@@H]1C[C@@H]2[C@H](C1)[C@H]2C(=O)N1CC[C@](c2ccc(C(F)(C(F)(F)F)C(F)(F)F)cc2)(S(=O)(=O)c2ccc(F)cc2)C1`, 100%; for `O=C(N1CC[C@](c2ccc(C(F)(C(F)(F)F)C(F)(F)F)cc2)(S(=O)(=O)c2ccc(F)cc2)C1)C1(CO)CCS(=O)(=O)CC1`, 75%.

Another series concerns the target T6, Oxysterols receptor LXR-alpha (Homo sapiens, UniProt Q13133).
T6 sequence (Q13133 whole entry): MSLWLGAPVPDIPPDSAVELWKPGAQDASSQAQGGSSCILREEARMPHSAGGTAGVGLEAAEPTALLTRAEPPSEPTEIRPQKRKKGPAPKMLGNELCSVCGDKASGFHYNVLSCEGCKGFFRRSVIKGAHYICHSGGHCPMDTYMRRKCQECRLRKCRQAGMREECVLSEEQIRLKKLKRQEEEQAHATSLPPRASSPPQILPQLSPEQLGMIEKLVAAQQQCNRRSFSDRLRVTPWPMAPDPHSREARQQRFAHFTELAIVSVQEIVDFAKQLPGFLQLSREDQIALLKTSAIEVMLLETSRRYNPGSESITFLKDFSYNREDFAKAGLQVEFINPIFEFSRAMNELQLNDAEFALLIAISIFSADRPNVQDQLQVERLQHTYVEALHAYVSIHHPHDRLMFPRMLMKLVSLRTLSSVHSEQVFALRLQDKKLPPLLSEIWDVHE
Put plainly: Transactivation of human GAL4-fused LXRalpha expressed in African green monkey CV1 cells. Format: cell-based.
Details: not given
The compound `O=C([C@H]1CC[C@H](O)CC1)N1CC[C@](c2ccc(C(F)(C(F)(F)F)C(F)(F)F)cc2)(S(=O)(=O)c2ccc(F)cc2)C1` gave an EC50 of more than 7.5 µM.
Regarding `CCC1(C(=O)N2CC[C@](c3ccc(C(F)(C(F)(F)F)C(F)(F)F)cc3)(S(=O)(=O)c3ccc(F)cc3)C2)CCS(=O)(=O)CC1`, the EC50 was more than 7.5 µM.
Same read-out and setting: for `O=C(O)[C@@H]1C[C@@H]2[C@H](C1)[C@H]2C(=O)N1CC[C@](c2ccc(C(F)(C(F)(F)F)C(F)(F)F)cc2)(S(=O)(=O)c2ccc(F)cc2)C1` the value was more than 7.5 µM; for `O=C(N1CC[C@](c2ccc(C(F)(C(F)(F)F)C(F)(F)F)cc2)(S(=O)(=O)c2ccc(F)cc2)C1)C1(CO)CCS(=O)(=O)CC1`, more than 7.5 µM.

As a reminder, the EC50 is the concentration that produces a half-maximal response.
